Laboratory results as given in the supplement of paper PMC12463676, “Small-molecule dissolution of stress granules by redox modulation benefits ALS models” (Nature Chemical Biology, 2025).

What was measured:
lipoamide = compound: NC(=O)CCCCC1CCSS1 [lipoamide]; assay: thermal stability z-score vs DMSO; higher = more thermally stabilized by treatment; settings: HeLa, lipoamide concentration 100 µM
Method: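 Cellular thermal proteome profiling in HeLa cells. Cells were treated with 100 µM lipoamide for 1 h, with or without 1 mM arsenate for a further 1 h, then heated to ten temperatures (37-66.3 °C), and soluble protein was quantified by TMT mass spectrometry relative to 0.1% DMSO controls. The thermal stability score (sum of log2 fold changes minus the abundance score) was transformed to a z-score; mean of n = 3 experiments.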

potassium arsenate = compound: O=[As]([O-])(O)O.[K+] [potassium arsenate]; assay: as above; settings: HeLa; arsenate concentration 1 mM
Method: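 Cellular thermal proteome profiling in HeLa cells treated with 1 mM arsenate for 1 h (DMSO pretreatment), heated to ten temperatures (37-66.3 °C). Soluble protein was quantified by TMT mass spectrometry relative to DMSO controls; the thermal stability score was transformed to a z-score; mean of n = 3 experiments.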

[1] = arsenate co-treatment: 1 mM arsenate 1 h
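Note: each temperature applied for 3 min, abundance score taken as mean log2 fold change at the two lowest temperatures, z-score obtained by mean subtraction and division by SD.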

Sequence of UniProt O60832 (O60832 whole entry): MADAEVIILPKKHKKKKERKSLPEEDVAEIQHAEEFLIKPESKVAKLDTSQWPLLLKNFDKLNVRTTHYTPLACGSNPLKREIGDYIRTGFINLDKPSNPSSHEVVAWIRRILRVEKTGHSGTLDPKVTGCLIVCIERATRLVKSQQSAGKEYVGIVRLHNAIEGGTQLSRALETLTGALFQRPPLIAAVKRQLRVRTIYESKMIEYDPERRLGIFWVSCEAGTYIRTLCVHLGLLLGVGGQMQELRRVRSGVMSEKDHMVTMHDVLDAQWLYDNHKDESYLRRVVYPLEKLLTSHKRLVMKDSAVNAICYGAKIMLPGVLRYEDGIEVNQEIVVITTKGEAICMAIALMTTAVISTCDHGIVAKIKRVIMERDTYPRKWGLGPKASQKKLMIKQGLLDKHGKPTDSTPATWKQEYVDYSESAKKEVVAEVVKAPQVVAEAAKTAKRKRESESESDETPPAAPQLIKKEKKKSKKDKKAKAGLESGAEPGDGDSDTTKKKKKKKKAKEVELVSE
Sequence of UniProt Q5T0W9 (Q5T0W9 whole entry): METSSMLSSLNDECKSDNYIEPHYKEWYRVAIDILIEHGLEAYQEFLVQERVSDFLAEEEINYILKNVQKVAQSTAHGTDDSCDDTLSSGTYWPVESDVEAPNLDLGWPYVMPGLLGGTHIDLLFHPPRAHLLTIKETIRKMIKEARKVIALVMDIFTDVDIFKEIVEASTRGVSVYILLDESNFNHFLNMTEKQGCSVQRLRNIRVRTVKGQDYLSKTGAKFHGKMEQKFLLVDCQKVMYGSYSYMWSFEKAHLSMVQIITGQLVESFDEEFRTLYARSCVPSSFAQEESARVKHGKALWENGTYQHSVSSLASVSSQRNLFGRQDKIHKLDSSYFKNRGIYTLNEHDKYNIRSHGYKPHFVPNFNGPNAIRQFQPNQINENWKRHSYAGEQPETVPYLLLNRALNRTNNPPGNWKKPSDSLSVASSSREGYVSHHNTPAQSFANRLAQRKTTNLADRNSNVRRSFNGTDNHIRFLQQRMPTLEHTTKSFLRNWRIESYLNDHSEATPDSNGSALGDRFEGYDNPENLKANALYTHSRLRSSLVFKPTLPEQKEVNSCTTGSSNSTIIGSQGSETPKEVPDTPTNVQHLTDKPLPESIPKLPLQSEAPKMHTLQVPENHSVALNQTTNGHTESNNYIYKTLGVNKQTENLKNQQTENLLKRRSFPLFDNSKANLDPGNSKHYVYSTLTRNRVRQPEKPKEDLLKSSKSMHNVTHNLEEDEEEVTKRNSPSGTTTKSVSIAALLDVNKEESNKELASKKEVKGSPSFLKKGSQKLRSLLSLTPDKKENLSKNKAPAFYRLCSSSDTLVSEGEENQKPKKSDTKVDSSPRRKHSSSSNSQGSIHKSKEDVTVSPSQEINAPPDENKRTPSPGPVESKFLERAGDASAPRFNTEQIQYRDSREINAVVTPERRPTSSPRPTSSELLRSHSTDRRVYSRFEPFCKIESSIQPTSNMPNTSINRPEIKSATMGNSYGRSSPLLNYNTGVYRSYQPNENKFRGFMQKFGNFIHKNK
Sequence of UniProt O00571 (O00571 whole entry, looked up): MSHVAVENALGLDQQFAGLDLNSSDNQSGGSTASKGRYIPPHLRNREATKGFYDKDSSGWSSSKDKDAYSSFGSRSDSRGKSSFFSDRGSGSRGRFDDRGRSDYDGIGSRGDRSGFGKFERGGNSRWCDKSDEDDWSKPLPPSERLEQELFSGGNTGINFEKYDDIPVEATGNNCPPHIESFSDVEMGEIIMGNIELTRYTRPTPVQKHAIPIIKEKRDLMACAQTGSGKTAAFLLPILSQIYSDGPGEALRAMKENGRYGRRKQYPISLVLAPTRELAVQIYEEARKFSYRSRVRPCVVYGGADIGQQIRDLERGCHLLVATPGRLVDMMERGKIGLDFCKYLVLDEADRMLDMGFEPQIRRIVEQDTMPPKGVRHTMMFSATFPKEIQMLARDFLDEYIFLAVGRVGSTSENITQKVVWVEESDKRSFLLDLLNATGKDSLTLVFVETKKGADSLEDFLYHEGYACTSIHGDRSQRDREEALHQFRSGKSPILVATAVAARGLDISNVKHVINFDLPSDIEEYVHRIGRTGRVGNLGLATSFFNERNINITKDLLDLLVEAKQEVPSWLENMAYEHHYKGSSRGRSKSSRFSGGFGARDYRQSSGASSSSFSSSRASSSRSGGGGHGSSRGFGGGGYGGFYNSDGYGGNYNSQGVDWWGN
Sequence of UniProt Q9NY27 (Q9NY27 whole entry): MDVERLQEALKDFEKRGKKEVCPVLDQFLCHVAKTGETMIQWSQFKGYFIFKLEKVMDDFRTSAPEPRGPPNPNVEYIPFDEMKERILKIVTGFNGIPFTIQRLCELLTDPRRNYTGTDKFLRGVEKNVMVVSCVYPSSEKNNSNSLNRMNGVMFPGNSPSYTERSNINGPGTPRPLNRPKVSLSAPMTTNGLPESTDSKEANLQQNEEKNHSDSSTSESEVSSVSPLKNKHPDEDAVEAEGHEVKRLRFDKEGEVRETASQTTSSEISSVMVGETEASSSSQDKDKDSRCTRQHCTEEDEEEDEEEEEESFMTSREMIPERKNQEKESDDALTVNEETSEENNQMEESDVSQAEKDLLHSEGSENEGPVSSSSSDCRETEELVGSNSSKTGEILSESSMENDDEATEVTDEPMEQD
Sequence of UniProt Q07864 (Q07864 whole entry): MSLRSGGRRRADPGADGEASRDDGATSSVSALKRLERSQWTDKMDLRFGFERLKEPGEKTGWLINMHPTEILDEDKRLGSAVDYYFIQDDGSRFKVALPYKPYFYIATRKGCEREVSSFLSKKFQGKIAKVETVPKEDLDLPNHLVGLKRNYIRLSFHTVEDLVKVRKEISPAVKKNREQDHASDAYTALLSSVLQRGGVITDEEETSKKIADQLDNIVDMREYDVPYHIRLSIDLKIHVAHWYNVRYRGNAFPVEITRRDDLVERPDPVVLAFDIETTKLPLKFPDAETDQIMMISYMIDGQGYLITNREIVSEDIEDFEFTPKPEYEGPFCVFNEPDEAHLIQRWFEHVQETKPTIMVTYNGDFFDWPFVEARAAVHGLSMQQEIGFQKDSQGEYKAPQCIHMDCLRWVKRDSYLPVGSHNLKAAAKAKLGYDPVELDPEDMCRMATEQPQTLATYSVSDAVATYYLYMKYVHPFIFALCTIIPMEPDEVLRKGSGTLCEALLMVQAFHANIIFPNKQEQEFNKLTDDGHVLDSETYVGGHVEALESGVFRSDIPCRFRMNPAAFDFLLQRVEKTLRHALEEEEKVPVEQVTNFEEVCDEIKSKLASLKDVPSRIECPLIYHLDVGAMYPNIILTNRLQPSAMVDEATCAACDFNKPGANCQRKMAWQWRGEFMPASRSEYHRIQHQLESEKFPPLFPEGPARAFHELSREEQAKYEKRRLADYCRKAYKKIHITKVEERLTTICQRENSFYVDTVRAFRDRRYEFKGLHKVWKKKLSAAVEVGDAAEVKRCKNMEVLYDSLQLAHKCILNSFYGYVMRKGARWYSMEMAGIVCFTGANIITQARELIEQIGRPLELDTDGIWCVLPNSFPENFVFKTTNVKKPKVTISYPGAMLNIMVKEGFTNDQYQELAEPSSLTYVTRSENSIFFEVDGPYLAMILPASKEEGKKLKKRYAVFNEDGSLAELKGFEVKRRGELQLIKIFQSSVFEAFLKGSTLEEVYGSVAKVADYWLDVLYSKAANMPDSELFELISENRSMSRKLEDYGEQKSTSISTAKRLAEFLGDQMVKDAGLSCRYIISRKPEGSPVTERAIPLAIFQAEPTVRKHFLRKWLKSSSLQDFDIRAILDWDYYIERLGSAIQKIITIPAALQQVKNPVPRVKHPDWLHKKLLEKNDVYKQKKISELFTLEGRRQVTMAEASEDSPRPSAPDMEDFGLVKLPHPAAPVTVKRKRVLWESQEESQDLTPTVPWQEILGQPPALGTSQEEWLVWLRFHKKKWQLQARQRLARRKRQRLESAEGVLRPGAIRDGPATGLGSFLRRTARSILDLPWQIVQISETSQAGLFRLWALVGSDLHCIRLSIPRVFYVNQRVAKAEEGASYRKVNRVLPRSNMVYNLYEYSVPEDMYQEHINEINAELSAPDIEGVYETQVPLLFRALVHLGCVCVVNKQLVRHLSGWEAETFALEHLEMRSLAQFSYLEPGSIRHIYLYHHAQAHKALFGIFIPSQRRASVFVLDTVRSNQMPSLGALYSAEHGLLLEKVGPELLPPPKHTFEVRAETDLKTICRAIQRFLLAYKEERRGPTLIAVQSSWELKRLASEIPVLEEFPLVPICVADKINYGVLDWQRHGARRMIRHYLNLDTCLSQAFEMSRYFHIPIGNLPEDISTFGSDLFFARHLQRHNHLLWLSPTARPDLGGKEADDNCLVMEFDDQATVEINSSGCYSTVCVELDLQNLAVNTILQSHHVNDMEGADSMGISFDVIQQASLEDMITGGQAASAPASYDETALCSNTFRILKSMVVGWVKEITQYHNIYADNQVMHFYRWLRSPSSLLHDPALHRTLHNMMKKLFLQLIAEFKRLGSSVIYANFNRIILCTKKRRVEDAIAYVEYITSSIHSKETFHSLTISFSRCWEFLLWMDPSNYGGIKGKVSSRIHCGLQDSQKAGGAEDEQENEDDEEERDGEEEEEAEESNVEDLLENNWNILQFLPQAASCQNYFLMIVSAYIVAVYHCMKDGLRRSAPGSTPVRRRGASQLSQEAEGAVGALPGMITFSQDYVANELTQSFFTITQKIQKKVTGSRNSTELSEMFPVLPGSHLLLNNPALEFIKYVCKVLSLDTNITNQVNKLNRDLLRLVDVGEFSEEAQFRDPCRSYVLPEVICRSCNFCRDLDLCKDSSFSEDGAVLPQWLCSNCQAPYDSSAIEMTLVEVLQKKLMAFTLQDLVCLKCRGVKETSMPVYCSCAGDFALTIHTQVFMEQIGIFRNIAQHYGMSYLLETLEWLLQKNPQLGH
Sequence of UniProt P11233 (P11233 whole entry): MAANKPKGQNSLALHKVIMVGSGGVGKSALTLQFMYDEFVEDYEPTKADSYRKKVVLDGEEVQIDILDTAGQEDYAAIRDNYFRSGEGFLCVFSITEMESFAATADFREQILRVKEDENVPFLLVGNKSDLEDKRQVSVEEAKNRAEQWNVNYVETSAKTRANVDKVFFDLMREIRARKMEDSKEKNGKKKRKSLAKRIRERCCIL

Row | Target | thermal stability z-score (lipoamide; [1]) | thermal stability z-score (lipoamide; arsenate co-treatment: none) | thermal stability z-score (potassium arsenate)
1 | PLCB3 (UniProt Q01970) | -0.0239 | -0.358 | -0.557
2 | MRPL42 (UniProt Q9Y6G3) | -1.07 | -0.921 | -1.61
3 | DDX49 (UniProt Q9Y6V7) | -0.368 | -0.359 | -0.153
4 | USP15 (UniProt Q9Y4E8) | 0.00184 | -0.0791 | 0.014
5 | NUDT5 (UniProt Q9UKK9) | 0.871 | 0.881 | 0.191
6 | OAS3 (UniProt Q9Y6K5) | -0.0852 | 0.257 | -0.07
7 | EIF3D (UniProt O15371) | -0.0633 | 0.0556 | -0.0622
8 | FXR2 (UniProt P51116) | 0.0778 | 0.0347 | 0.783
9 | ALYREF (UniProt Q86V81) | 0.585 | 0.0941 | -0.0562
10 | UNK (UniProt Q9C0B0) | 0.117 | 0.0195 | -0.364
11 | PPP1R13L (UniProt Q8WUF5) | -0.367 | -0.132 | -0.21
12 | RBBP4 (UniProt Q09028) | 0.868 | 0.934 | -0.0159
13 | KIAA0907 (UniProt Q7Z7F0) | -0.462 | -1.09 | -0.94
14 | DENND1A (UniProt Q8TEH3) | -0.118 | -0.0262 | -0.185
15 | RSBN1 (UniProt Q5VWQ0) | -0.421 | -0.198 | -0.387
16 | EPHB4 (UniProt P54760) | -0.297 | -0.194 | 0.295
17 | CEP250 (UniProt Q9BV73) | 0.0869 | 0.182 | 0.0828
18 | USP47 (UniProt Q96K76) | -0.439 | -0.436 | 0.244
19 | NOCT (UniProt Q9UK39) | -0.088 | -0.117 | 0.112
20 | NCAPH (UniProt Q15003) | -1.04 | -0.316 | 0.387
21 | PABPC1 (UniProt P11940) | 0.469 | 0.549 | -0.758
22 | POLE (UniProt Q07864) | -0.0751 | -0.113 | -0.553
23 | CYB5R4 (UniProt Q7L1T6) | 0.477 | 0.1 | -0.243
24 | PPP4R2 (UniProt Q9NY27) | -0.326 | 0.221 | -0.136

Row | Target | thermal stability z-score (lipoamide; [1]) | thermal stability z-score (lipoamide; arsenate co-treatment: none) | thermal stability z-score (potassium arsenate)
25 | DDX3X (UniProt O00571) | -0.829 | -0.504 | -2.07
26 | APH1A (UniProt Q96BI3) | 0.28 | -0.0861 | -0.696
27 | GALNT6 (UniProt Q8NCL4) | -0.515 | -0.683 | -0.396
28 | IRAK4 (UniProt Q9NWZ3) | -0.11 | -0.0699 | -0.11
29 | TWF2 (UniProt Q6IBS0) | -0.088 | -0.182 | -0.697
30 | MAVS (UniProt Q7Z434) | 0.0772 | 0.294 | -0.963
31 | RALA (UniProt P11233) | 0.107 | -0.0183 | -0.459
32 | PLPP2 (UniProt O43688) | -0.387 | -0.14 | -0.114
33 | RPL35 (UniProt P42766) | 0.579 | 0.674 | -0.812
34 | POLB (UniProt P06746) | -0.0159 | -0.17 | -0.111
35 | PSMC2 (UniProt P35998) | -0.293 | -0.165 | -0.134
36 | RPS6KB2 (UniProt Q9UBS0) | 0.0955 | 0.0989 | -0.0668
37 | SLC12A6 (UniProt Q9UHW9) | -0.454 | -0.27 | 0.131
38 | PACSIN3 (UniProt Q9UKS6) | 0.00517 | 0.149 | -0.842
39 | KNSTRN (UniProt Q9Y448) | -0.729 | -0.171 | 1.36
40 | ZFYVE16 (UniProt Q7Z3T8) | -0.45 | 0.222 | -0.676
41 | INTS3 (UniProt Q68E01) | -0.121 | -0.0169 | 0.26
42 | MDN1 (UniProt Q9NU22) | 0.0494 | 0.0439 | 0.0865
43 | SACS (UniProt Q9NZJ4) | -0.17 | -0.0653 | 0.0609
44 | DERL1 (UniProt Q9BUN8) | -0.177 | -0.185 | -0.00515
45 | MTMR12 (UniProt Q9C0I1) | 0.611 | -0.0556 | -0.0618
46 | RBM34 (UniProt P42696) | 0.0729 | -0.0422 | -0.201
47 | KDM3B (UniProt Q7LBC6) | 0.258 | -0.0129 | 0.0976
48 | WWTR1 (UniProt Q9GZV5) | -0.0845 | -0.0566 | 0.377

Row | Target | thermal stability z-score (lipoamide; [1]) | thermal stability z-score (lipoamide; arsenate co-treatment: none) | thermal stability z-score (potassium arsenate)
49 | NUDT1 (UniProt P36639) | 0.505 | 0.0984 | -0.00492
50 | CD151 (UniProt P48509) | 1.24 | 0.682 | 0.131
51 | FAM83B (UniProt Q5T0W9) | -0.567 | -0.89 | -2.02
52 | HSP90AB1 (UniProt P08238) | -0.421 | -0.166 | 0.108
53 | ARPC5 (UniProt O15511) | 0.9 | 0.484 | -0.246
54 | DPH2 (UniProt Q9BQC3) | -0.0475 | -0.355 | -1.17
55 | CD2AP (UniProt Q9Y5K6) | 0.591 | 0.887 | 0.988
56 | PLIN2 (UniProt Q99541) | 0.587 | 0.338 | 2.1
57 | TMX2 (UniProt Q9Y320) | -1.05 | -2.85 | -1.96
58 | TXNL1 (UniProt O43396) | -0.206 | -0.576 | 7
59 | CNOT4 (UniProt O95628) | -0.171 | -0.00856 | 0.494
60 | FADS3 (UniProt Q9Y5Q0) | -0.431 | 0.482 | -0.618
61 | AK4 (UniProt P27144) | 0.119 | 0.256 | -0.724
62 | CTSD (UniProt P07339) | 0.0179 | -0.0567 | -0.598
63 | MYOF (UniProt Q9NZM1) | -0.259 | 0.0805 | 0.0213
64 | DKC1 (UniProt O60832) | 0.735 | 0.39 | 0.437
65 | YWHAZ (UniProt P63104) | 0.146 | -0.0541 | -0.195
66 | DDX50 (UniProt Q9BQ39) | 0.262 | 0.192 | -0.49
67 | MKRN1 (UniProt Q9UHC7) | -0.0831 | -0.0834 | -0.138
68 | RAB27A (UniProt P51159) | 0.277 | -0.14 | 0.579
69 | PTPRS (UniProt Q13332) | -0.214 | -0.198 | -0.0489
70 | CCDC50 (UniProt Q8IVM0) | 0.557 | 0.248 | -0.0338
71 | PREPL (UniProt Q4J6C6) | 0.836 | 0.783 | -0.177
